# Test results published in US20250313604A1, “PEPTIDE PHARMACEUTICALS FOR INSULIN RESISTANCE” (Mederis Diabetes LLC, priority 2014, published 2025).
# What was measured:
# [1] = in water; cited from earlier work
# db/db mice = test: In vivo assay in db/db mice (blood glucose, body weight, food consumption)
# [2] = high dose (300 nmoles/kg) s.c., Days 2 and 3
compound,measurement,setting,value
CCCCCCCCCCCCCCO[C@@H]1O[C@H](CO)[C@@H](O[C@@H]2O[C@@H](CO)[C@H](O)[C@@H](O)[C@@H]2O)[C@H](O)[C@H]1O (stereo in doubt) [Tetradecyl maltoside],CMC,[1],0.01 mM
CCCCCCCCCCCCCO[C@@H]1O[C@H](CO)[C@@H](OC2OC(CO)C(O)C(O)C2O)[C@H](O)[C@H]1O (stereo in doubt) [Tridecyl maltoside],CMC,[1],0.03 mM
CCCCCCCCCCO[C@@H]1O[C@H](CO)[C@@H](O[C@H]2O[C@H](CO)[C@@H](O)[C@H](O)[C@H]2O)[C@H](O)[C@H]1O [Decyl maltoside],CMC,[1],1.8 mM
CCCCCCCCCCCCO[C@@H]1O[C@H](CO)[C@@H](O[C@H]2O[C@H](CO)[C@@H](O)[C@H](O)[C@H]2O)[C@H](O)[C@H]1O [Dodecyl-β-D-maltoside],CMC,[1],0.17 mM
CCCCCCCCO[C@@H]1O[C@H](C(=O)NCCCC[C@H](NC(=O)[C@@H](NC(=O)[C@H](Cc2ccccc2)NC(=O)[C@H](CCC(=O)O)NC(=O)[C@@H]2CCCCNC(=O)CC[C@H](NC(=O)[C@H](CC(=O)O)NC(=O)[C@H](CC(C)C)NC(=O)[C@H](Cc3ccc(O)cc3)NC(=O)[C@H](CCCCN)NC(=O)[C@H](CO)NC(=O)[C@H](Cc3ccc(O)cc3)NC(=O)[C@H](CC(=O)O)NC(=O)[C@H](CO)NC(=O)[C@@H](NC(=O)[C@H](Cc3ccccc3)NC(=O)[C@@H](NC(=O)CNC(=O)[C@H](CCC(N)=O)NC(=O)C(C)(C)NC(=O)[C@@H](N)Cc3c[nH]cn3)[C@@H](C)O)[C@@H](C)O)C(=O)N[C@@H](CCC(N)=O)C(=O)N[C@@H](C)C(=O)N[C@@H](C)C(=O)N2)[C@@H](C)CC)C(=O)N[C@@H](Cc2c[nH]c3ccccc23)C(=O)N[C@@H](CC(C)C)C(=O)N[C@@H](CC(C)C)C(=O)N[C@@H](CCC(N)=O)C(=O)N[C@H](C(N)=O)[C@@H](C)O)[C@@H](O)[C@H](O)[C@H]1O [EU-A992],db/db mice - Mean Blood Glucose,"db/db mice; 250 nmole/kg s.c., 0 hr",405 mg/dL
same,db/db mice - Mean Blood Glucose,"db/db mice; 250 nmole/kg s.c., 10 hr",104 mg/dL
same,db/db mice - Mean Blood Glucose,"db/db mice; 250 nmole/kg s.c., 24 hr",112 mg/dL
same,db/db mice - Mean Blood Glucose,"db/db mice; 250 nmole/kg s.c., 48 hr",130 mg/dL
"CCCCCCCCCCCCCCO[C@@H]1O[C@H](C(=O)NCCCC[C@H](NC(=O)[C@@H](NC(=O)[C@H](Cc2ccccc2)NC(=O)[C@H](CCC(=O)O)NC(=O)[C@@H]2CCCCNC(=O)CC[C@H](NC(=O)[C@H](CC(=O)O)NC(=O)[C@H](CC(C)C)NC(=O)[C@H](Cc3ccc(O)cc3)NC(=O)[C@H](CCCCN)NC(=O)[C@H](CO)NC(=O)[C@H](Cc3ccc(O)cc3)NC(=O)[C@H](CC(=O)O)NC(=O)[C@H](CO)NC(=O)[C@@H](NC(=O)[C@H](Cc3ccccc3)NC(=O)[C@@H](NC(=O)CNC(=O)[C@H](CCC(N)=O)NC(=O)C(C)(C)NC(=O)[C@@H](N)Cc3c[nH]cn3)[C@@H](C)O)[C@@H](C)O)C(=O)N[C@@H](CCC(N)=O)C(=O)N[C@@H](C)C(=O)N[C@@H](C)C(=O)N2)[C@@H](C)CC)C(=O)N[C@@H](Cc2c[nH]c3ccccc23)C(=O)N[C@@H](CC(C)C)C(=O)N[C@@H](CC(C)C)C(=O)N[C@@H](CCC(N)=O)C(=O)N[C@H](C(N)=O)[C@@H](C)O)[C@@H](O)[C@H](O)[C@H]1O [EU-A994, His1-Aib2-Gln3-Gly4-Thr5-Phe6-Thr7-Ser8-Asp9-Tyr10-Ser11-Lys12-Tyr13-Leu14-Asp15-Glu*16-Gln17-Ala18-Ala19-Lys*20-Glu21-Phe22-Ile23-Lys(N-omega(1-tetradecylbeta-D-glucuronyl))24-Trp25-Leu26-Leu27-Gln28-Thr29-NH2]",db/db mice - Mean Blood Glucose,"db/db mice; 300 nmole/kg s.c., 0 hr",554 mg/dL
same,db/db mice - Mean Blood Glucose,"db/db mice; 300 nmole/kg s.c., 10 hr",242 mg/dL
same,db/db mice - Mean Blood Glucose,"db/db mice; 300 nmole/kg s.c., 24 hr",209 mg/dL
same,db/db mice - Mean Blood Glucose,"db/db mice; 300 nmole/kg s.c., 48 hr",385 mg/dL
same,body weight changes against vehicle,db/db mice; [2],Significant body weight changes
"CCCCCCCCCCCCCCCCCCO[C@@H]1O[C@H](CO[C@H]2O[C@H](C(=O)NCCCC[C@H](NC(=O)[C@@H](NC(=O)[C@H](Cc3ccccc3)NC(=O)[C@H](CCC(=O)O)NC(=O)[C@@H]3CCCCNC(=O)CC[C@H](NC(=O)[C@H](CC(=O)O)NC(=O)[C@H](CC(C)C)NC(=O)[C@H](Cc4ccc(O)cc4)NC(=O)[C@H](CCCCN)NC(=O)[C@H](CO)NC(=O)[C@H](Cc4ccc(O)cc4)NC(=O)[C@H](CC(=O)O)NC(=O)[C@H](CO)NC(=O)[C@@H](NC(=O)[C@H](Cc4ccccc4)NC(=O)[C@@H](NC(=O)CNC(=O)[C@H](CCC(N)=O)NC(=O)C(C)(C)NC(=O)[C@@H](N)Cc4c[nH]cn4)[C@@H](C)O)[C@@H](C)O)C(=O)N[C@@H](CCC(N)=O)C(=O)N[C@@H](C)C(=O)N[C@@H](C)C(=O)N3)[C@@H](C)CC)C(=O)N[C@@H](Cc3c[nH]c4ccccc34)C(=O)N[C@@H](CC(C)C)C(=O)N[C@@H](CC(C)C)C(=O)N[C@@H](CCC(N)=O)C(=O)N[C@H](C(N)=O)[C@@H](C)O)[C@H](O)[C@H](O)[C@H]2O)[C@@H](O)[C@H](O)[C@H]1O [EU-A1026, His1-Aib2-Gln3-Gly4-Thr5-Phe6-Thr7-Ser8-Asp9-Tyr10-Ser11-Lys12-Tyr13-Leu14-Asp15-Glu*16-Gln17 Ala18-Ala19-Lys*20-Glu21-Phe22-Ile23-Lys (N-omega (1-octadecyl beta-D-melibiouronyl)) 24-Trp25-Leu26-Leu27-Gln28-Thr29-NH2]",db/db mice - Mean Blood Glucose,"db/db mice; 300 nmole/kg s.c., 0 hr",531 mg/dL
same,db/db mice - Mean Blood Glucose,"db/db mice; 300 nmole/kg s.c., 10 hr",399 mg/dL
same,db/db mice - Mean Blood Glucose,"db/db mice; 300 nmole/kg s.c., 24 hr",438 mg/dL
same,db/db mice - Mean Blood Glucose,"db/db mice; 300 nmole/kg s.c., 48 hr",505 mg/dL
same,body weight changes against vehicle,db/db mice; [2],Significant body weight changes
same,glucose levels versus liraglutide,"db/db mice; low dose (100 nmoles/kg) s.c., 10 hours",significantly different from liraglutide
same,body weight changes against vehicle,"db/db mice; low dose (100 nmoles/kg) s.c., Days 3 and 4",Significant body weight changes
CCCCCCCCCCO[C@@H]1O[C@H](C(=O)NCCCC[C@H](NC(=O)[C@@H](NC(=O)[C@H](Cc2ccccc2)NC(=O)[C@H](CCC(=O)O)NC(=O)[C@@H]2CCCCNC(=O)CC[C@H](NC(=O)[C@H](CC(=O)O)NC(=O)[C@H](CC(C)C)NC(=O)[C@H](Cc3ccc(O)cc3)NC(=O)[C@H](CCCCN)NC(=O)[C@H](CO)NC(=O)[C@H](Cc3ccc(O)cc3)NC(=O)[C@H](CC(=O)O)NC(=O)[C@H](CO)NC(=O)[C@@H](NC(=O)[C@H](Cc3ccccc3)NC(=O)[C@@H](NC(=O)CNC(=O)[C@H](CCC(N)=O)NC(=O)C(C)(C)NC(=O)[C@@H](N)Cc3c[nH]cn3)[C@@H](C)O)[C@@H](C)O)C(=O)N[C@@H](CCC(N)=O)C(=O)N[C@@H](C)C(=O)N[C@@H](C)C(=O)N2)[C@@H](C)CC)C(=O)N[C@@H](Cc2c[nH]c3ccccc23)C(=O)N[C@@H](CC(C)C)C(=O)N[C@@H](CC(C)C)C(=O)N[C@@H](CCC(N)=O)C(=O)N[C@H](C(N)=O)[C@@H](C)O)[C@@H](O)[C@H](O)[C@H]1O [EU-A1167],db/db mice - Mean Blood Glucose,"db/db mice; 250 nmole/kg s.c., 0 hr",379 mg/dL
same,db/db mice - Mean Blood Glucose,"db/db mice; 250 nmole/kg s.c., 10 hr",171 mg/dL
same,db/db mice - Mean Blood Glucose,"db/db mice; 250 nmole/kg s.c., 24 hr",117 mg/dL
same,db/db mice - Mean Blood Glucose,"db/db mice; 250 nmole/kg s.c., 48 hr",113 mg/dL
CCCCCCCCCCCO[C@@H]1O[C@H](C(=O)NCCCC[C@H](NC(=O)[C@@H](NC(=O)[C@H](Cc2ccccc2)NC(=O)[C@H](CCC(=O)O)NC(=O)[C@@H]2CCCCNC(=O)CC[C@H](NC(=O)[C@H](CC(=O)O)NC(=O)[C@H](CC(C)C)NC(=O)[C@H](Cc3ccc(O)cc3)NC(=O)[C@H](CCCCN)NC(=O)[C@H](CO)NC(=O)[C@H](Cc3ccc(O)cc3)NC(=O)[C@H](CC(=O)O)NC(=O)[C@H](CO)NC(=O)[C@@H](NC(=O)[C@H](Cc3ccccc3)NC(=O)[C@@H](NC(=O)CNC(=O)[C@H](CCC(N)=O)NC(=O)C(C)(C)NC(=O)[C@@H](N)Cc3c[nH]cn3)[C@@H](C)O)[C@@H](C)O)C(=O)N[C@@H](CCC(N)=O)C(=O)N[C@@H](C)C(=O)N[C@@H](C)C(=O)N2)[C@@H](C)CC)C(=O)N[C@@H](Cc2c[nH]c3ccccc23)C(=O)N[C@@H](CC(C)C)C(=O)N[C@@H](CC(C)C)C(=O)N[C@@H](CCC(N)=O)C(=O)N[C@H](C(N)=O)[C@@H](C)O)[C@@H](O)[C@H](O)[C@H]1O [EU-A1168],db/db mice - Mean Blood Glucose,"db/db mice; 250 nmole/kg s.c., 0 hr",380 mg/dL
same,db/db mice - Mean Blood Glucose,"db/db mice; 250 nmole/kg s.c., 10 hr",133 mg/dL
same,db/db mice - Mean Blood Glucose,"db/db mice; 250 nmole/kg s.c., 24 hr",169 mg/dL
same,db/db mice - Mean Blood Glucose,"db/db mice; 250 nmole/kg s.c., 48 hr",164 mg/dL
CCCCCCCCO[C@@H]1O[C@H](CO)[C@@H](O[C@H]2O[C@H](CO)[C@@H](O)[C@H](O)[C@H]2O)[C@H](O)[C@H]1O [Octyl maltoside],CMC,[1],19.5 mM
Sucrose dodecanoate,CMC,[1],0.3 mM
